Reference: the NIST ThermoML archive (doi:10.1021/je100362p)
Several values for one entry are separate records, joined by “and”; a condition that tells them apart may be missing. Identical values can stand only once. Numbers after ± are expanded uncertainties.

Key:
[1] = refractive index (Na D-line) (dimensionless); conditions: 101.33 kPa, Liquid, Standard Abbe refractometry
[2] = 101 kPa, Liquid; for speed of sound: Sing-around technique in a fixed-path interferometer
[3] = refractive index (Na D-line) (dimensionless); xn = mol fraction of the nth substance listed; conditions: 101 kPa, Liquid, Standard Abbe refractometry, x2 = 0
[4] = xn = mol fraction of the nth substance listed; conditions: 101 kPa, Liquid, x2 = 0; for speed of sound: Sing-around technique in a fixed-path interferometer

| SMILES | refractive index ([1]; 298.15 K) | refractive index ([1]; 303.15 K) | refractive index ([1]; 308.15 K) | mass density ([2]; 298.15 K) [kg/m3] | speed of sound ([2]; 298.15 K) [m/s] | mass density ([2]; 303.15 K) [kg/m3] | speed of sound ([2]; 303.15 K) [m/s] | mass density ([2]; 308.15 K) [kg/m3] | speed of sound ([2]; 308.15 K) [m/s] | refractive index ([3]; 298.15 K) | refractive index ([3]; 303.15 K) | refractive index ([3]; 308.15 K) | speed of sound ([4]; 298.15 K) [m/s] | mass density ([4]; 298.15 K) [kg/m3] | speed of sound ([4]; 303.15 K) [m/s] | mass density ([4]; 303.15 K) [kg/m3] | speed of sound ([4]; 308.15 K) [m/s] | mass density ([4]; 308.15 K) [kg/m3] |
| --- | --- | --- | --- | --- | --- | --- | --- | --- | --- | --- | --- | --- | --- | --- | --- | --- | --- | --- |
| Cc1ccc(O)cc1 [4-methylphenol] | 1.537 ± 0.00072 | 1.534 ± 0.00072 | 1.531 ± 0.00072 | 1030.14 ± 0.49 | 1486.4 ± 1.4 | 1026.28 ± 0.48 | 1470.7 ± 1.4 | 1022.38 ± 0.47 | 1455 ± 1.4 | – | – | – | – | – | – | – | – | – |
| CCCCCCCCCCO [decan-1-ol] + COc1ccccc1 | – | – | – | – | – | – | – | – | – | 1.43456 ± 0.00054 | 1.43256 ± 0.00054 | 1.4305 ± 0.00055 | 1379.4 ± 1.1 | 826.526 ± 0.55 | 1362.3 ± 1.1 | 823.101 ± 0.56 | 1345.6 ± 1.1 | 819.671 ± 0.57 |
| COc1ccccc1 [anisole] | 1.51495 ± 0.00041 | 1.51395 ± 0.00054 | 1.51095 ± 0.0007 | 989.145 ± 0.25 | 1406.9 ± 1.1 | 984.433 ± 0.26 | 1386.8 ± 1.1 | 979.712 ± 0.27 | 1366.5 ± 1.1 | – | – | – | – | – | – | – | – | – |
| CCCCCCCCCCO [decan-1-ol] + Cc1ccc(O)cc1 | – | – | – | – | – | – | – | – | – | 1.43456 ± 0.00054 | 1.43256 ± 0.00054 | 1.4305 ± 0.00055 | 1379.4 ± 1.1 | 826.526 ± 0.55 | 1362.3 ± 1.1 | 823.101 ± 0.56 | 1345.6 ± 1.1 | 819.671 ± 0.57 |
| CCCCCCCCCCO [decan-1-ol] | 1.43456 ± 0.00054 | 1.43256 ± 0.00054 and 1.43266 ± 0.00054 | 1.4305 ± 0.00055 | 826.526 ± 0.55 | 1379.4 ± 1.1 | 823.101 ± 0.56 | 1362.3 ± 1.1 | 819.671 ± 0.57 | 1345.6 ± 1.1 | – | – | – | – | – | – | – | – | – |
| CCCCCCCCCCO [decan-1-ol] + Cc1cccc(O)c1 | – | – | – | – | – | – | – | – | – | 1.43456 ± 0.00054 | 1.43256 ± 0.00054 | 1.4305 ± 0.00055 | 1379.4 ± 1.1 | 826.526 ± 0.55 | 1362.3 ± 1.1 | 823.101 ± 0.56 | 1345.6 ± 1.1 | 819.671 ± 0.57 |
| CCCCCCCCCCO [decan-1-ol] + Cc1ccccc1O | – | – | – | – | – | – | – | – | – | 1.43456 ± 0.00052 | 1.43266 ± 0.00054 | 1.4305 ± 0.00056 | 1379.4 ± 1.1 | 826.526 ± 0.55 | 1362.3 ± 1.1 | 823.101 ± 0.56 | 1345.6 ± 1.1 | 819.671 ± 0.57 |
| Cc1cccc(O)c1 [3-methylphenol] | 1.538 ± 0.0007 | 1.535 ± 0.0007 | 1.532 ± 0.0007 | 1030.05 ± 0.25 | 1480.9 ± 1 | 1026.09 ± 0.24 | 1465.2 ± 1 | 1022.12 ± 0.23 | 1449.6 ± 1 | – | – | – | – | – | – | – | – | – |
| Cc1ccccc1O [2-methylphenol] | 1.544 ± 0.0007 | 1.54099 ± 0.00078 | 1.53699 ± 0.00087 | 1042.32 ± 0.27 | 1504.6 ± 1.1 | 1036.94 ± 0.26 | 1487.4 ± 1.1 | 1031.55 ± 0.25 | 1470.3 ± 1 | – | – | – | – | – | – | – | – | – |
